From PMC9386001, “Identification of naturally occurring inhibitors in Xian-Ling-Gu-Bao capsule against the glucuronidation of estrogens” (Frontiers in Pharmacology, 2022) come the findings set out here.

One data set addresses T1, UGT2B7 (Homo sapiens, UniProt P16662).
T1 sequence (P16662 24-529): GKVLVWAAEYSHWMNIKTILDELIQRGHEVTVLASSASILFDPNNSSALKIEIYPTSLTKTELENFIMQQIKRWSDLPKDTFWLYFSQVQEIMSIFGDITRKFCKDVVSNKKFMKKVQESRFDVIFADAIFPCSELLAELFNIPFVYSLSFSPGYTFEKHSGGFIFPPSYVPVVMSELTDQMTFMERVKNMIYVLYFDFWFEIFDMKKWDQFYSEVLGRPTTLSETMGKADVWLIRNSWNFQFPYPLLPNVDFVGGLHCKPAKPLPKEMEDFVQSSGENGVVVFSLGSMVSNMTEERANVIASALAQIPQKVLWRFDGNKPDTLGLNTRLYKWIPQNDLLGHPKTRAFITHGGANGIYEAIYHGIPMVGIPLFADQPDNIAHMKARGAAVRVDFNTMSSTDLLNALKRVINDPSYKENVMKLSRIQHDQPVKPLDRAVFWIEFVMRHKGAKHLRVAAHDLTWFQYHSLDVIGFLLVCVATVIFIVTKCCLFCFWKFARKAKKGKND
Description: Estrogen glucuronidation kinetics by expressed UGT2B7. Particulars: recombinant (expressed) UGT2B7, pH 7.4.

In data set [1] the test system is human liver microsomes (HLM). Description: Estrogen glucuronidation kinetics by HLM. Type of data set: in vitro ADME. Particulars: HLM. The procedure:
(§1) In brief, incubation mixtures (100 μL) contained Tris-HCl buffer solution (50 mM, pH = 7.4), microsomes (HLM, HIM, 0.5 mg/ml) or UGT enzymes (1 mg/ml), MgCl2 (0.88 mM), alamethicin (22 μg/ml), and D-saccharic-1,4-lactone (4.4 mM) and respective substrate. The volume of organic solvent in incubation mixtures was kept below 1%. After pre-incubation at 37°C for 5 min, the reaction was commenced with the addition of UDPGA (4 mM) and subsequently incubated at 37°C for a period. The reaction was terminated by adding 100 μL of cold acetonitrile. Then, the incubation mixtures were vortexed and centrifuged at 13,800 g for 10 min to collect the supernatant for analysis.
(§2) All experiments were performed in triplicate.
(§3) Glucuronidation rates were expressed as the amounts of formed metabolites per minute per milligram protein (pmol/min/mg protein) based on Eq. 1. Furthermore, kinetic characteristics were evaluated from the suitable curves based on the profile of the Eadie–Hofstee plot, and corresponding kinetic parameters were estimated using Eqs 2–4. Appropriated model fitting was performed by GraphPad Prism V5 software (San Diego, CA).
(§4) The intrinsic clearance (CL int ) was derived from V max /K m for Michaelis–Menten and substrate inhibition models, and the maximal clearance (CL max ) was obtained using Eq. 5 for Hill kinetics. Vg=Cs∗V/Cprotein∗T∗Vprotein. (1) V=Vmax×[S]/Km+[S], (2) V=Vmax×[S]/Km+[S](1+[S]/Ksi), (3) V=Vmax×[S]^n/S50n[…], (4) CLmax=Vmax/S50×n−1/n(n−1)^1/n. (5)

The nature of data set [2]: Estrogen glucuronidation kinetics by HLM. Type of data set: in vitro ADME, human. Particulars: human, human liver microsomes, pH 7.4, HLM, read-out: CL int or CL max. The procedure: as §1, §2, §3, §4
(Liver microsomes are a subcellular fraction often used to study metabolism.)

Data set [3] in a line: Estrogen glucuronidation kinetics by HIM. Type of data set: in vitro ADME, human. Conditions: human, human intestine microsomes, pH 7.4, HIM, read-out: CL int or CL max. The procedure:
as §2
(§5) Vg=Cs∗V/Cprotein∗T∗Vprotein. […] (5)

The test system of data set [4] is human intestine microsomes (HIM). The data set can be described thus: Estrogen glucuronidation kinetics by HIM. Type of data set: in vitro ADME. Particulars: HIM. The procedure:
as §2, §5

Regarding `C[C@]12CC[C@@H]3c4ccc(O)cc4CC[C@H]3[C@@H]1C[C@@H](O)[C@@H]2O` [E3, estriol], the microsomal CLint at UGT2B7 is 793.8 ± 0.07 µL/min/mg; in data set [2] (3-O-glucuronide formation), 1.58 ± 0.16 µL/min/mg; in data set [2] (16-O-glucuronide formation), 542.32 ± 0.05 µL/min/mg; in data set [3] (3-O-glucuronide formation) it was 10.74 ± 0.1 µL/min/mg; in data set [3] (16-O-glucuronide formation), 109.4 ± 0.04 µL/min/mg. Further, the “K m or S50” value was 86.1 ± 12.39 µM in data set [1] (3-O-glucuronide formation), 11.91 ± 0.60 µM in data set [1] (16-O-glucuronide formation), 50.18 ± 4.40 µM in data set [4] (3-O-glucuronide formation) and 11.59 ± 0.49 µM in data set [4] (16-O-glucuronide formation).
